Where two headings read alike, the source gives them in different places. Starred links: 1 amine or outer side, 2 acyl side, 3 side chain; linkers in the order of their positions; H or OH if unused. Positions of bridges follow the written chain, without caps; N, C: chain ends. Residues, ends and D or L forms follow the SMILES beside them. Chains are numbered I, II in the order given. X2 = C[C@@H](CNC(=O)N[C@@H](C)CNC(=O)N[C@@H](C)CNC(=O)N[C@@H](C)CNC(=O)[*:2])NC(=O)NC[C@H](CCC(=O)O)NC(=O)NC[C@H](Cc1ccc(O)cc1)N[*:1]; X1 = C[C@@H](CNC(=O)N[C@@H](C)CNC(=O)[*:2])NC(=O)NC[C@H](C)N[*:1]
Assays:
[1] = biological target: T1, mouse GLP-1 receptor (Mus musculus, UniProt O35659); assay: cell-based
T1 sequence (O35659 22-463): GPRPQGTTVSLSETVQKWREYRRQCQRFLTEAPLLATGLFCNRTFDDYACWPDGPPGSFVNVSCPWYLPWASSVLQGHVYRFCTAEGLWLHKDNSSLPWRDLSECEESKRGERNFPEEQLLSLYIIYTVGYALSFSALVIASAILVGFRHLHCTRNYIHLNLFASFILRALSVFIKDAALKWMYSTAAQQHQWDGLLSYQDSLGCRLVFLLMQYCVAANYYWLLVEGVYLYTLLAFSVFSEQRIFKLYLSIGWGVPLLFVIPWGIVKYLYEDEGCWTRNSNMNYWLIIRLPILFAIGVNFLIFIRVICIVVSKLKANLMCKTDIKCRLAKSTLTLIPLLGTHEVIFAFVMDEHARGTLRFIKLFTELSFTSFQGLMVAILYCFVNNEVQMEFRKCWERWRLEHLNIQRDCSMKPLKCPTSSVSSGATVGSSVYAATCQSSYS

[2] = test system: normal mice (C57BL/6J); assay: Blood glucose study in normal fed mice; type: in vivo, mouse; set-up: key to In vivo activity (indicator): + active; +++: + + + more active; conditions: for effect on blood glucose concentration / time after dosing for which the blood glucose decrease is preserved: normal fed C57BL/6J mice, n = 3, 5 μg per mouse (50 nmol kg−1) i.v.; for effect on blood glucose concentration: monitored 6 h; for In vivo activity (indicator): mice, 50 nmol kg−1 i.v.
Description: In the first study, we evaluated the effect of the analogues on the blood glucose concentration of normal mice (Fig. 3). The fed mice were treated with the analogues and their blood glucose concentration was monitored before and after dosing for 6 h. […] Indeed, a decrease of blood glucose concentration is observed after 30 min and the effect is preserved for 4 h after dosing.
Fig. 3 Blood glucose study in mice. a–c Blood glucose concentration in normal mice (C57BL/6J, male, 20–25 g, n = 3) before and after dosing: 5 μg per mouse (50 nmol kg^−1) i.v. Formulation: 20 μg mL^−1 in PBS 1×. The dosing was done at T0. Data are mean ± SEM. […] Source data are provided as a Source Data file
After the acclimation period (at least 5 days), mice (male C57BL/6J mice (Charles River laboratories) 8 weeks old, 20–25 g) were randomized into 10 groups (n = 3 per group) according to their body weight. They were acutely treated via i.v. route at 10 am (5 µg per mouse). Blood glucose was measured before dosing and at 30 min, 1, 2, 4, 6 h after dosing in fed conditions.

[3] = in vitro; conditions: mouse, plasma; for remaining at 20 min, 5 µM / remaining at 1 h, 5 µM: pH 7.4, % remaining analogue
Description: The oligomer was then diluted 1/50 with a solution of plasma/PBS pH 7.4 (1:1) to afford a final concentration of 5 µM and incubated at 37 °C (4 µL of the stock solution was diluted with 196 µL of plasma/PBS, pH 7.4, 1:1). Each compound was also incubated in the absence of plasma (196 µL of H2O/PBS, pH 7.4, 1:1). At the indicated time (20 min and 60 min) an aliquot of 70 µL was removed from each experimental reaction and pipetting into 175 µL of acetonitrile at 0 °C to quench the reaction (t = 0 min was determined using the reaction without plasma). The samples were frozen at –80 °C before analysis. The frozen samples were defrosted, stirred with a vortex 5 min and finally centrifuged 5 min at 16 °C (1500 × g). The supernatant was analysed by LC-MS. The time course of oligomer degradation was determined by integrating the area of the peak in the extracted ion chromatogram.
Supplementar y Figur e 2 : Mouse plasma degradation assay. […] Data are
mean ± SEM, n = 4. Source data are provided as a Source Data file (T able 2 tab).
Supplementar y Figur e 3.
Data are mean ± SEM, n = 3.
Source data are provided as a Source Data file […]

[4] = NEP 24.11 degradation assay; conditions: NEP 24.11 (isolated enzyme), pH 8, % remaining analogue, NEP 24.11 20 μg mL−1, […], pH 8.0, 20 °C, HPLC; time 6 h; replicate 1
Description: Stock solutions of the oligomers were prepared at a concentration of 400 µM in a solution of 50 mM HEPES buffer, 50 mM NaCl, 0.05% Tween-80, pH 8.0. Stock solution of NEP 24.11 was prepared at a concentration of 100 µg mL^−1 in water. Stability of oligomers to NEP 24.11 was assessed by conducting protease reaction in a 96-well plates at 20 °C. […] Each compound was also incubated in the absence of the enzyme (12 µL of HEPES buffer and 38 µL of oligomer). […] A portion of the quenched reaction solution was analysed by HPLC. The time course of peptide degradation was determined by integrating the area of each peak in a series of HPLC traces.

[5] = biological target: T1, mouse GLP-1 receptor; conditions: for Potency (%), percentage of potency compare to GLP-1-G^2: cAMP production, from EC50
[6] = test system: fasted normal mice (C57BL/6J); assay: Intraperitoneal glucose tolerance test (IPGTT) in fasted normal mice; type: in vivo, mouse; conditions: for AUC: IPGTT 5 min (Fig 4a), blood glucose AUC 0-120 min
Description: In a second study, an IPGTT was performed 30 min after i.v. injections of 1, 14 and the vehicle (Fig. 4b). […] A further IPGTT study was done with a glucose challenge after 2 h of the dosing to investigate the prolonged activity of hybrids 14, 22 and 23 (Fig. 4c).
Fig. 4 IPGTT studies in mice. a–d Intraperitoneal glucose tolerance test (IPGTT) at different time after dosing in fasted normal mice (C57BL/6J, male, 20–25 g). Dosage: 200 μg kg^−1 (50 nmol kg^−1) i.v. Formulation: 20 μg mL^−1 in PBS 1×. IPGTT: glucose 2 g kg^−1 i.p. at T0. a IPGTT after 5 min (n = 4). b IPGTT after 30 min (n = 6). c IPGTT after 2 h (n = 6). d IPGTT after 4 h (n = 3). Area under the curve (AUC) of the corresponding IPGTT curve. Data are mean ± SEM. […] Source data are provided as a Source Data file
After the acclimation period (at least 5 days), mice (male C57BL/6J mice (Charles River laboratories) 6 weeks old, 20–25 g) were randomized into groups according to their body weight. The mice were fasted for 6 h prior being acutely treated via i.v. route (5 µg per mouse i.v. (200 μg kg^−1, 50 nmol kg^−1)) formulated at 20 µg mL^−1 in PBS 1×. The IPGTTs were performed (glucose 2 g kg^−1 i.p.) 5 min, 30 min, 2 h or 4 h after dosing and blood glucose was measured at different time points after the glucose challenge.

[7] = read-out: Top (best-fit value), variable slope four-parameter fit, unconstrained, 14: experiment 1
[8] = fasted C57BL/6J mice, 200 μg kg−1 (50 nmol kg−1) i.v., glucose 2 g kg−1 i.p., n = 6

SMILES | EC50 [1] | Emax [1, 7] | effect on blood glucose concentration [2] | half-life ([3]; pH 7.4) | remaining at 20 min, 5 µM [3] | remaining at 1 h, 5 µM [3] | LogEC50 (best-fit value) [5] | Potency (%), percentage of potency compare to GLP-1-G^2 [5] | In vivo activity (indicator) [2] | time after dosing for which the blood glucose decrease is preserved [2] | activity in IPGTT 2 h after dosing [6, 8] | also measured
CC[C@H](C)[C@H](NC(=O)[C@H](Cc1ccccc1)NC(=O)[C@H](CCC(=O)O)NC(=O)[C@H](CCCCN)NC(=O)[C@H](C)NC(=O)[C@H](C)NC(=O)[C@H](CCC(N)=O)NC(=O)CNC(=O)[C@H](CCC(=O)O)NC(=O)[C@H](CC(C)C)NC(=O)[C@H](Cc1ccc(O)cc1)NC(=O)NC[C@H](C)NC(=O)NC[C@H](C)NC(=O)N[C@@H](CNC(=O)[C@H](CO)NC(=O)[C@@H](NC(=O)[C@H](Cc1ccccc1)NC(=O)[C@@H](NC(=O)CNC(=O)[C@H](CCC(=O)O)NC(=O)CNC(=O)[C@@H](N)Cc1c[nH]cn1)[C@@H](C)O)[C@@H](C)O)CC(=O)O)C(=O)N[C@@H](C)C(=O)N[C@@H](Cc1c[nH]c2ccccc12)C(=O)N[C@@H](CC(C)C)C(=O)N[C@H](C(=O)N[C@@H](CCCCN)C(=O)NCC(=O)N[C@@H](CCCNC(=N)N)C(=O)NCC(N)=O)C(C)C [compound 2, GG2[D^uαA^uA^u]^9-12] | 13 nM | 77.7% | showed no activity | 17 min | 38% | 21.2% | -7.897 | 2% |  |  |  | remaining at 6 h, […] [4]: 39.2%
CC[C@H](C)[C@H](NC(=O)[C@H](Cc1ccccc1)NC(=O)NC[C@H](C)NC(=O)NC[C@H](C)NC(=O)NC[C@H](C)NC(=O)[C@H](CCC(N)=O)NC(=O)CNC(=O)[C@H](CCC(=O)O)NC(=O)[C@H](CC(C)C)NC(=O)[C@H](Cc1ccc(O)cc1)NC(=O)[C@H](CO)NC(=O)[C@H](CO)NC(=O)[C@@H](NC(=O)[C@H](CC(=O)O)NC(=O)[C@H](CO)NC(=O)[C@@H](NC(=O)[C@H](Cc1ccccc1)NC(=O)[C@@H](NC(=O)CNC(=O)[C@H](CCC(=O)O)NC(=O)CNC(=O)[C@@H](N)Cc1c[nH]cn1)[C@@H](C)O)[C@@H](C)O)C(C)C)C(=O)N[C@@H](C)C(=O)N[C@@H](Cc1c[nH]c2ccccc12)C(=O)N[C@@H](CC(C)C)C(=O)N[C@H](C(=O)N[C@@H](CCCCN)C(=O)NCC(=O)N[C@@H](CCCNC(=N)N)C(=O)NCC(N)=O)C(C)C [compound 14, GG2[A^uA^uA^u]^18-21] (I: H-HGEGTFTSDVSSYLEGQ / II: FIAWLVKGRG-NH2; linker I:C-II:N via X1) | 4.1 nM | 103% | showed an improved efficacy compare to the native peptide 1 | 38 min | 66.9% | 30.5% |  | 6% | +++ | 4 h | good control of the blood glucose concentration during the IPGTT | Emax ([1]; read-out: Top (best-fit value), fit with BOTTOM = 0%, 14: experiment 1): 116%; Emax ([1]; read-out: Top (best-fit value), fit with BOTTOM = 0%, 14 experiment 2): 117%; Emax ([1]; read-out: Top (best-fit value), fit with BOTTOM = 0%, 14 experiment 3): 100%; Emax ([1]; read-out: Top (best-fit value), fit with BOTTOM = 0%, 14 experiment 4): 116%; Emax ([1]; read-out: Top (best-fit value), variable slope four-parameter fit, unconstrained, 14 experiment 2): 116%; Emax ([1]; read-out: Top (best-fit value), variable slope four-parameter fit, unconstrained, 14 experiment 3): 99.8%; Emax ([1]; read-out: Top (best-fit value), variable slope four-parameter fit, unconstrained, 14 experiment 4): 119%; AUC ([6]; mean of n = 4, 2018-03-08): 16833 mg·min/dL; AUC ([6]; single animal, 1st of group): 18150 mg·min/dL; AUC ([6]; single animal, 2nd of group): 13233 mg·min/dL; AUC ([6]; single animal, 3rd of group): 18503 mg·min/dL; AUC ([6]; single animal, 4th of group): 17445 mg·min/dL; activity in IPGTT 4 h after dosing ([6]; fasted C57BL/6J mice, 200 μg kg−1 (50 nmol kg−1) i.v., glucose 2 g kg−1 i.p., n = 3): still active after 6 h of the treatment; activity in IPGTT 5 min after dosing ([6]; fasted C57BL/6J mice, 200 μg kg−1 (50 nmol kg−1) i.v., glucose 2 g kg−1 i.p., n = 4): both analogues were active; activity in IPGTT 30 min after dosing [6, 8]: demonstrated full activity
CC[C@H](C)[C@H](NC(=O)[C@H](Cc1ccccc1)NC(=O)NC[C@H](C)NC(=O)NC[C@H](C)NC(=O)NC[C@H](C)NC(=O)NC[C@H](C)NC(=O)NC[C@H](CCC(=O)O)NC(=O)NC[C@H](Cc1ccc(O)cc1)NC(=O)[C@H](Cc1ccc(O)cc1)NC(=O)[C@H](CO)NC(=O)[C@H](CO)NC(=O)[C@@H](NC(=O)[C@H](CC(=O)O)NC(=O)[C@H](CO)NC(=O)[C@@H](NC(=O)[C@H](Cc1ccccc1)NC(=O)[C@@H](NC(=O)CNC(=O)[C@H](CCC(=O)O)NC(=O)CNC(=O)[C@@H](N)Cc1c[nH]cn1)[C@@H](C)O)[C@@H](C)O)C(C)C)C(=O)N[C@@H](C)C(=O)N[C@@H](Cc1c[nH]c2ccccc12)C(=O)N[C@@H](CC(C)C)C(=O)N[C@H](C(=O)N[C@@H](CCCCN)C(=O)NCC(=O)N[C@@H](CCCNC(=N)N)C(=O)NCC(N)=O)C(C)C [compound 23, GG2[Y^uE^uA^uA^uA^uA^u]^14-21] (I: H-HGEGTFTSDVSSY / II: FIAWLVKGRG-NH2; linker I:C-II:N via X2) | 3.4 nM | 100% | showed an improved efficacy compare to the native peptide 1 |  |  | 24.8% | -8.466 | 7% | +++ | 4 h | good control of the blood glucose concentration during the IPGTT | half-life at 5 µM ([3]; pH 7.4): 39 min
